Laboratory results published in paper PMC11266321 (EJNMMI Radiopharmacy and Chemistry, 2024).

Experiments:
Adenosine A1 = molecular target: T1, Adenosine A1 (Homo sapiens, UniProt P30542); test: Radioligand binding inhibition, Adenosine A1; conditions: 10 µM; radioligand [^3H]DPCPX; mean of duplicate
T1 construct: Sekisui Medical (contract laboratory)
Method: (§1) Interaction of MMP with 28 binding sites was examined, including major classes of neurotransmitter receptor, uptake system, and ion channels (Sekisui Medical, Naka, Japan). MMP was tested in all assays at 10 µM. […] Each determination was made in duplicate.
(§2) Test substance concentration : 10 µM, positive substance concentration : 10 µM
(§3) Data are expressed as the mean values of duplicate samples.
(§4) The % inhibition was calculated from “100 – binding ratio”.
(§5) Binding ratio: [(B - N) / (B0 - N)] × 100 (%)
(§6) B: Bound radioactivity in the presence of test substance and positive substance (individual value)
(§7) B0: Total bound radioactivity in the absence of test substance and positive substance (mean value)
(§8) N: Non-specific bound radioactivity (mean value)

Adenosine A2 = molecular target: T2, Adenosine A2 (Homo sapiens, UniProt P29274); test: Radioligand binding inhibition, Adenosine A2; conditions: 10 µM; radioligand [^3H]CGS21680; mean of duplicate
T2 construct: Sekisui Medical (contract laboratory)
T2 sequence (P29274 whole entry): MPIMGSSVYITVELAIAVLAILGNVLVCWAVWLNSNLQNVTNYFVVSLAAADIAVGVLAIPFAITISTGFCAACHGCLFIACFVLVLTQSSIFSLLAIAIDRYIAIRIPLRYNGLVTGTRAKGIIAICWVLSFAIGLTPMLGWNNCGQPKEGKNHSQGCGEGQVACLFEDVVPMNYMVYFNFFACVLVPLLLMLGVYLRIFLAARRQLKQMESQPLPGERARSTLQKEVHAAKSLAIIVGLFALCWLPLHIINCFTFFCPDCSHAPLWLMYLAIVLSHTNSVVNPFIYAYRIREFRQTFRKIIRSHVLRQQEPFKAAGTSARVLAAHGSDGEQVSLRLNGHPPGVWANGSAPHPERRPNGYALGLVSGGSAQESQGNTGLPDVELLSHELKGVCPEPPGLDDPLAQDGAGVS
Method: as §1, §2, §3, §4, §5, §6, §7, §8

[1] = system: α2-Adrenergic (non-selective); test: Radioligand binding inhibition, α2-Adrenergic; conditions: 10 µM; radioligand [^3H]Rauwolscine; mean of duplicate
Method: (§9) Interaction of MMP with 28 binding sites was examined, including major classes of neurotransmitter receptor, uptake system, and ion channels (Sekisui Medical, Naka, Japan). MMP was tested in all assays at 10 µM. […] 10.2.3 (GraphPad Software, San Diego, CA). Each determination was made in duplicate.
as §2, §3, §4, §5, §6, §7, §8

Dopamine D2 = molecular target: T3, Dopamine D2 (Homo sapiens, UniProt P14416); test: Radioligand binding inhibition, Dopamine D2; conditions: 10 µM; radioligand [^3H]Spiperone; mean of duplicate
T3 construct: Sekisui Medical (contract laboratory)
T3 sequence (P14416 whole entry): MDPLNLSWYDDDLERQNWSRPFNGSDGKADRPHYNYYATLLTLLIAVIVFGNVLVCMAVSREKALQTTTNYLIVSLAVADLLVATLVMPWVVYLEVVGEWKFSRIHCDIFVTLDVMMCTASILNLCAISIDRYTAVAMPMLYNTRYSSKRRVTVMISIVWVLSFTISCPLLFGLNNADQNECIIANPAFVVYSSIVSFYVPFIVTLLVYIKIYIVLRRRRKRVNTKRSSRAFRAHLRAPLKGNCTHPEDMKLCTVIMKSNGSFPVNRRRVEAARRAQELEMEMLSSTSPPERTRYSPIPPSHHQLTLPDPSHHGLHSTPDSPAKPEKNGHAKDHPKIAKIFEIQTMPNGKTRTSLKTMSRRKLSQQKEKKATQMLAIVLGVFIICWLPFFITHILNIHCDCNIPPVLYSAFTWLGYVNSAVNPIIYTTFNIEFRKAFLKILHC
Method: as §9, §2, §3, §4, §5, §6, §7, §8

GABA A (agonist site) = test: Radioligand binding inhibition, GABA A agonist site; conditions: 10 µM; radioligand [^3H]Muscimol; mean of duplicate
Method: as §9, §2, §3, §4, §5, §6, §7, §8

GABA A (BZ central) = test: Radioligand binding inhibition, GABA A BZ central; conditions: 10 µM; radioligand [^3H]Flunitrazepam; mean of duplicate
Method: as §9, §2, §3, §4, §5, §6, §7, §8

[2] = system: Glutamate (non-selective); test: Radioligand binding inhibition, Glutamate non-selective; conditions: 10 µM; radioligand [^3H]Glutamic acid; mean of duplicate
Method: as §9, §2, §3, §4, §5, §6, §7, §8

Glutamate (Ketamine) = test: Radioligand binding inhibition, Glutamate (Ketamine); conditions: 10 µM; radioligand [^3H]Kainic acid; mean of duplicate
[3] = system: Glutamate (NMDA phencyclidine site); test: Radioligand binding inhibition, Glutamate NMDA phencyclidine site; conditions: 10 µM; radioligand [^3H]MK-801; mean of duplicate
Method: as §9, §2, §3, §4, §5, §6, §7, §8

[4] = system: Glycine (strychnine site); format: binding; conditions: 10 µM; radioligand [^3H]Strychine; mean of duplicate
Histamine H1 (central) = molecular target: T4, Histamine H1 (central) (Homo sapiens, UniProt P35367); format: binding; conditions: 10 µM; radioligand [^3H]Pyrilamine; mean of duplicate
T4 construct: Sekisui Medical (contract laboratory)
T4 sequence (P35367 whole entry): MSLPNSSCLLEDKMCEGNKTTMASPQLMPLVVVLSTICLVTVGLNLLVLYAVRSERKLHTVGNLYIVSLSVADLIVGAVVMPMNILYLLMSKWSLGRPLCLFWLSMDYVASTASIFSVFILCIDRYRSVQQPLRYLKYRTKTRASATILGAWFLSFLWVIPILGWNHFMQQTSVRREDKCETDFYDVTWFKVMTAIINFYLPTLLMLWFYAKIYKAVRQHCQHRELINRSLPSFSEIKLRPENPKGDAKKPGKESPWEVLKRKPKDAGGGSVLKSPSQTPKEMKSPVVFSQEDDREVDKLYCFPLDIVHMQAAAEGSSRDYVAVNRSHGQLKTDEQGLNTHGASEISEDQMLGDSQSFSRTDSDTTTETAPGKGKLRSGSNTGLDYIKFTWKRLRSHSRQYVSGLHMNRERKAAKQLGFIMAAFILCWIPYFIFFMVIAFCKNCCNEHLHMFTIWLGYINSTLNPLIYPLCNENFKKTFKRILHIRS

Histamine H2 = molecular target: T5, Histamine H2 (Homo sapiens, UniProt P25021); test: Radioligand binding inhibition, Histamine H2; conditions: 10 µM; radioligand [^125I]Iodoaminopotentidine; mean of duplicate
T5 construct: Sekisui Medical (contract laboratory)
T5 sequence (P25021 whole entry): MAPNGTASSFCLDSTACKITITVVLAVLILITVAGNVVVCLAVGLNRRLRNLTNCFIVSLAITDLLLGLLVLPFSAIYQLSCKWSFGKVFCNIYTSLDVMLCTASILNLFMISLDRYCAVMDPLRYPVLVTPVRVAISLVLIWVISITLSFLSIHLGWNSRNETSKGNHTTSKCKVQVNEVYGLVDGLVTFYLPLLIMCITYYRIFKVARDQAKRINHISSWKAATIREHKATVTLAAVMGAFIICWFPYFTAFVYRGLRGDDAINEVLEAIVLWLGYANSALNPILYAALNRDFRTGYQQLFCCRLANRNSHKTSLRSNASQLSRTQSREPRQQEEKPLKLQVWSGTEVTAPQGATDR
Method: as §9, §2, §3, §4, §5, §6, §7, §8

Histamine H3 = molecular target: T6, Histamine H3 (Homo sapiens, UniProt Q9Y5N1); test: Radioligand binding inhibition, Histamine H3; conditions: 10 µM; radioligand [^3H]N-methyl-histamine; mean of duplicate
T6 construct: Sekisui Medical (contract laboratory)
T6 sequence (Q9Y5N1 whole entry): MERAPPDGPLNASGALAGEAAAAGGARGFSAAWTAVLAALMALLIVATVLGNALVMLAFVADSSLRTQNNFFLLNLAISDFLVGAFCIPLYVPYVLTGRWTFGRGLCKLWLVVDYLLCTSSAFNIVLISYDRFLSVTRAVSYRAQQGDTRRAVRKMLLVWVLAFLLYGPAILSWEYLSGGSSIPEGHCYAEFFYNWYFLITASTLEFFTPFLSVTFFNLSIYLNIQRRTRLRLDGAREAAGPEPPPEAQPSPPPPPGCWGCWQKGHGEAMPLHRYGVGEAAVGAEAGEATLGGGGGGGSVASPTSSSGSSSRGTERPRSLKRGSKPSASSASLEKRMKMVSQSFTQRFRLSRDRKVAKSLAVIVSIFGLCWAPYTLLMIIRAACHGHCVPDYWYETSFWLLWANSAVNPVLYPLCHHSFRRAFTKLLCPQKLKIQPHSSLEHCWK
Method: as §1, §2, §3, §4, §5, §6, §7, §8

Muscarinic M2 = molecular target: T7, Muscarinic M2 (Homo sapiens, UniProt P08172); test: Radioligand binding inhibition, Muscarinic M2; conditions: 10 µM; radioligand [^3H]AF-DX384; mean of duplicate
T7 construct: Sekisui Medical (contract laboratory)
T7 sequence (P08172 whole entry): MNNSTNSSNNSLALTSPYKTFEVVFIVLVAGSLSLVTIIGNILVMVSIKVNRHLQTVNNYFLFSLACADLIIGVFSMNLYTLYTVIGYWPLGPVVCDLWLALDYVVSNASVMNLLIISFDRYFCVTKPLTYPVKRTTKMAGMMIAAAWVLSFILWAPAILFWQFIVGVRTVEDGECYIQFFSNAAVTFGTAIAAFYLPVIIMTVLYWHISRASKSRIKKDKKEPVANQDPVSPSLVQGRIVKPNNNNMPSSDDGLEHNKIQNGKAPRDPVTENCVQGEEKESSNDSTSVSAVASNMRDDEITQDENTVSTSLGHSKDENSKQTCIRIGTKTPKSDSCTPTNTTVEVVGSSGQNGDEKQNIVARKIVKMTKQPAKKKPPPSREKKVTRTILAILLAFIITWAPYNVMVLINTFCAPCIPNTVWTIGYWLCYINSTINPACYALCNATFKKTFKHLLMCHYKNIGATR
Method: as §1, §2, §3, §4, §5, §6, §7, §8

Nicotinic (neuronal) = format: binding; conditions: 10 µM; radioligand [^3H]Cytisine; mean of duplicate
Opiate (non-selective) = test: Radioligand binding inhibition, Opiate; conditions: 10 µM; radioligand [^3H]Naloxone; mean of duplicate
Method: as §9, §2, §3, §4, §5, §6, §7, §8

Serotonin 5HT2A = molecular target: T8, Serotonin 5HT2A (Homo sapiens, UniProt P28223); test: Radioligand binding inhibition, Serotonin 5HT2A; conditions: 10 µM; radioligand [^3H]Ketanserin; mean of duplicate
T8 construct: Sekisui Medical (contract laboratory that ran the panel)
T8 sequence (P28223 whole entry): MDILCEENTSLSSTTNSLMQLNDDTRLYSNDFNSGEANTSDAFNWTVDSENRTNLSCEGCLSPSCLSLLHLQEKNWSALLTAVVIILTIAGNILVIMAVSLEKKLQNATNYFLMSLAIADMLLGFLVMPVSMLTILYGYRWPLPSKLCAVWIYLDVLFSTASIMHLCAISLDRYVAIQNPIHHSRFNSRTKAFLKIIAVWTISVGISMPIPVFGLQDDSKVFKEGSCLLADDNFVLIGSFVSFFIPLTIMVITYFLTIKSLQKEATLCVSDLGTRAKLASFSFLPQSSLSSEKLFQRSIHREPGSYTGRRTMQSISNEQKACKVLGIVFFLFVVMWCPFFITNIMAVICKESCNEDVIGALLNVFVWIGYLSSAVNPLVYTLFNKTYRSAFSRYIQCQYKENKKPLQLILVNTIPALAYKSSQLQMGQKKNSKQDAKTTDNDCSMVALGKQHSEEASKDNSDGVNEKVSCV
Method: as §9, §2, §3, §4, §5, §6, §7, §8

Serotonin 5HT3 (human) = molecular target: T9, Serotonin 5HT3 (human) (Homo sapiens, UniProt P46098); test: Radioligand binding inhibition, Serotonin 5HT3; conditions: 10 µM; radioligand [^3H]GR65630; mean of duplicate
T9 construct: Sekisui Medical (contract laboratory that ran the panel)
T9 sequence (P46098 24-478): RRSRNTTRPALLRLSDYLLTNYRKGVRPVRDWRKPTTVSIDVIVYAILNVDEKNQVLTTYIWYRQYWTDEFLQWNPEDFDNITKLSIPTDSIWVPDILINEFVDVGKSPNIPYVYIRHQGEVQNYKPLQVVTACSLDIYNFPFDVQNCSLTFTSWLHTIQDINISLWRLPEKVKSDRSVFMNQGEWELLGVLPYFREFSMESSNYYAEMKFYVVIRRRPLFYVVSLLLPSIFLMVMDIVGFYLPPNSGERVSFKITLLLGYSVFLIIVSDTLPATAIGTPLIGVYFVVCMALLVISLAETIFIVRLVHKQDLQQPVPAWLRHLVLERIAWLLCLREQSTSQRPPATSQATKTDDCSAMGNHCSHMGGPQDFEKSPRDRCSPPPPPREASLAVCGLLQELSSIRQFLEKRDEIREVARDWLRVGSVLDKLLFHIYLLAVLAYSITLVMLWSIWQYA
Method: as §9, §2, §3, §4, §5, §6, §7, §8

[5] = system: other brain neuroreceptors; test: Receptor selectivity panel, other binding sites; conditions: 10 µM; binding sites other than sigma
Method: as §9

[6] = system: Escherichia coli (WP2uvrA); test: Ames test (reverse bacterial mutation test), E. coli; format: cell-based; conditions: with and without S9 mixture, 78.1–5000 µg/plate
Source text: The MMP was custom synthesized by the Nard Institute (Kobe, Japan) using methods described previously (Toyohara et al. [2020a]). All other chemical reagents were obtained from commercial sources. Male ddY mice were obtained from Japan SLC (Hamamatsu, Japan). Sprague–Dawley rats [Crl: CD(SD)] were obtained from […] (Yokohama, Japan). Animal studies were approved by the Animal Care and Use Committee of the Tokyo Metropolitan Institute for Geriatrics and Gerontology (Approval Nos. 22,015 and 23,007) and Nihon Bioresearch (Hashima, Japan; Approval Nos. 430,085 and 430,086). Acute toxicity studies were performed under the “Revisions of the Guidelines for Single and Repeated Dose Toxicity Studies” (PMDA, 1993). Ames test was performed under the “Guidance on Genotoxicity Testing and Data Interpretation for Pharmaceuticals Intended for Human Use” (PMDA, 2012).
Mutagenicity tests were performed at the Hashima Research Center, Nihon Bioresearch, under non-GLP control. MMP was tested for mutagenicity by the Ames test with four histidine-requiring strains of Salmonella typhimurium (TA98, TA100, TA1535, and TA1537) and one strain of Escherichia coli (WP2uvrA), with and without the S9 mixture, at a dose range of 78.1–5000 µg/plate according to the standard method.

T1 sequence (P30542 whole entry): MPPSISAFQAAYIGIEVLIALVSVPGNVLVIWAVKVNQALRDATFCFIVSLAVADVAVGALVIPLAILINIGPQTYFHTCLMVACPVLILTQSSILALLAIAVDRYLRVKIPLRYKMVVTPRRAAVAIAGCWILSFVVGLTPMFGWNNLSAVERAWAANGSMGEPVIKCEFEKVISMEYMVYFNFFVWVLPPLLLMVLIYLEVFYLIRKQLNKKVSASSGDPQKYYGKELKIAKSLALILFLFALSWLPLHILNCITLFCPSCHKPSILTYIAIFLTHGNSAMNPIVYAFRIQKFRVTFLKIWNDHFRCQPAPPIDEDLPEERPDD

SMILES: Cc1ccc(CC(C)NC(C)C)cc1 (centres unmarked) [MMP, N-isopropyl-p-methylamphetamine]
- Inhibition ratio (%) (Adenosine A1): 3.26%
- Inhibition ratio (%) (Adenosine A2): 1.64%
- Inhibition ratio (%) [1]: 42.47%
- Inhibition ratio (%) (Dopamine D2): 6.04%
- Inhibition ratio (%) (GABA A (agonist site)): 3.62%
- Inhibition ratio (%) (GABA A (BZ central)): 2.17%
- Inhibition ratio (%) [2]: 0.00%
- Inhibition ratio (%) (Glutamate (Ketamine)): 11.86%
- Inhibition ratio (%) [3]: 0.00%
- Inhibition ratio (%) [4]: 4.11%
- Inhibition ratio (%) (Histamine H1 (central)): 11.97%
- Inhibition ratio (%) (Histamine H2): 14.43%
- Inhibition ratio (%) (Histamine H3): 3.82%
- Inhibition ratio (%) (Muscarinic M2): 23.38%
- Inhibition ratio (%) (Nicotinic (neuronal)): 0.00%
- Inhibition ratio (%) (Opiate (non-selective)): 4.92%
- Inhibition ratio (%) (Serotonin 5HT2A): 24.12%
- Inhibition ratio (%) (Serotonin 5HT3 (human)): 0.91%
- inhibition, other brain neuroreceptors [5]: < 50%
- mutagenic activity [6]: no mutagenic activity
